Test results: US20250332173A1, “COMPOUNDS AND METHODS FOR MODULATING NUCLEIC ACID SPLICING” (REMIX THERAPEUTICS INC., priority 2021, published 2025)

What was measured:
Assay type in all cases: cell-based, human
Target C = test: HiBiT protein abundance assay, Target C (Promega Nano-Glo HiBiT Lytic Detection System, knock-in K562 cell line); settings: Homo sapiens, K562, 24 h, HiBiT K562 cell line, 24 hours, top dose 10 μM; read-out: Effect on protein abundance, Target C (IC50 category)
Method in brief: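 HiBiT knock-in K562 cells (10,000/well) were treated for 24 h at 37 °C with a 10-point 3-fold dilution series, top final concentration 10 μM, DMSO ≤0.25%. Lytic HiBiT luminescence was read, normalized to unmodified K562 and DMSO-treated controls, and IC50 was interpolated from a four-parameter logistic fit.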

HTT = test: HiBiT protein abundance assay, HTT HiBiT K562 cell line; settings: HiBiT K562 cell line, 24 hours, top dose 10 μM; read-out: Effect on protein abundance, HTT (IC50 category)
Method in brief: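 Endogenous targets in K562 knock-in lines carried a HiBiT tag and were treated for 24 h at 37 °C with 10-point 3-fold dilutions (top 10 μM final, DMSO ≤0.25%). Abundance was read as lytic Nano-Glo HiBiT luminescence. IC50 came from a four-parameter logistic fit of normalized response.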

SMN2 mRNA = test: RT-qPCR splicing assay, SMN2 canonical junction (CJ) mRNA; settings: Homo sapiens; Table 5 panel; canonical junction qPCR; compound concentration having 50% response in CJ decrease; read-out: SMN2 IC50 (decrease in CJ mRNA levels)
Method in brief: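 Canonical exon-exon junction transcript levels measured by one-step RT-qPCR of cell lysates, normalized to a housekeeping gene (GAPDH, GUSB or PPIA). Cells used were A673 or K562, exposed for 24 h to compound in 11-point, 3-fold series from 10 uM, with final DMSO at or below 0.25%.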

Structure (SMILES)	IC50 (Target C) [nM]	IC50 (HTT) [nM]	IC50 (SMN2 mRNA) [nM]
Cc1cn2cc(-c3cc(S(C)(=O)=O)c4c(=O)n(C5CCNCC5)ccc4c3)cc(F)c2n1 [Compound 409, 6-(8-fluoro-2-methylimidazo[1,2-a]pyridin-6-yl)-8-(methylsulfonyl)-2-(piperidin-4-yl)isoquinolin-1(2H)-one]	> 10000	> 10000	> 10000
Cc1cn2nc(-c3cc(O)c4c(=O)n(C5CCNCC5)ccc4c3)cc(C)c2n1 [Compound 391, 6-(2,8-dimethylimidazo[1,2-b]pyridazin-6-yl)-8-hydroxy-2-(piperidin-4-yl)isoquinolin-1(2H)-one]	< 100	< 100	< 100
Cn1cc2c(n1)CCN(c1ccc3c(=O)n(C4CCNCC4)ccc3c1)C2 [Compound 509, 6-{2-methyl-4H,6H,7H-pyrazolo[4,3-c]pyridin-5-yl}-2-(piperidin-4-yl)isoquinolin-1-one]	> 10000	> 10000	1000 to 10000
Cc1cn2nc(-c3ccc4c(=O)n(C5CCCNC5)ccc4c3)cc(C)c2n1 (stereo in doubt) [Compound 411, 6-{2,8-dimethylimidazo[1,2-b]pyridazin-6-yl}-2-[(3R)-piperidin-3-yl]isoquinolin-1-one]	1000 to 10000	1000 to 10000	100 to 1000
Cc1cn2nc(-c3cc(F)c4c(=O)n(C5CCNC6(CC6)C5)ccc4c3)cc(C)c2n1 (stereo not drawn) [Compound 380, 6-(2,8-dimethylimidazo[1,2-b]pyridazin-6-yl)-8-fluoro-2-(4-azaspiro[2.5]octan-7-yl)isoquinolin-1(2H)-one]	< 100	< 100	< 100
Cc1cn2cc(-c3cc(F)c4c(=O)n(C5CCNCC5)cc(C)c4c3)cc(F)c2n1 [Compound 461, 8-fluoro-6-{8-fluoro-2-methylimidazo[1,2-a]pyridin-6-yl}-4-methyl-2-(piperidin-4-yl)isoquinolin-1-one]	100 to 1000	< 100	< 100
Cc1cn2nc(-c3cc(F)c4c(=O)n(C5CCNC5)ccc4c3)cc(C)c2n1 (stereo in doubt) [Compound 392, (S)-6-(2,8-dimethylimidazo[1,2-b]pyridazin-6-yl)-8-fluoro-2-(pyrrolidin-3-yl)isoquinolin-1(2H)-one]	1000 to 10000	1000 to 10000	< 100
Cc1cn2cc(-c3cc(N)c4c(=O)n(C5CCNCC5)cnc4c3)cc(C#N)c2n1 [Compound 364, 6-[5-amino-4-oxo-3-(piperidin-4-yl)quinazolin-7-yl]-2-methylimidazo[1,2-a]pyridine-8-carbonitrile]	> 10000	> 10000	> 10000
Cc1cn2cc(-c3cc(F)c4c(=O)n(C5CCNC6(CC6)C5)ccc4c3)ncc2n1 (stereo not drawn) [Compound 428, 8-fluoro-6-(2-methylimidazo[1,2-a]pyrazin-6-yl)-2-(4-azaspiro[2.5]octan-7-yl)isoquinolin-1(2H)-one]	1000 to 10000	100 to 1000	< 100
Cc1cn2nc(-c3ccc4c(=O)n([C@H]5CCNC6(CC6)C5)ccc4c3)cc(C)c2n1 [Compound 445]	< 100	< 100	< 100
CN1C2C=C(c3ccc4c(=O)n(-c5ccc6nn(C)cc6c5)cnc4c3)CC1CC2 (stereo not drawn) [Compound 161]	> 10000	> 10000	> 10000
Cc1cn2c(n1)CCC(c1ccc3c(=O)n(C4CCNCC4)ccc3c1)C2 (stereo not drawn) [Compound 453, 6-{2-methyl-5H,6H,7H,8H-imidazo[1,2-a]pyridin-6-yl}-2-(piperidin-4-yl)isoquinolin-1-one]	> 10000	> 10000	> 10000
Cc1cn2nc(-c3cc(C)c4c(=O)n(C5CCNC6(CC6)C5)ncc4c3)cc(C)c2n1 (stereo not drawn) [Compound 423, 6-(2,8-dimethylimidazo[1,2-b]pyridazin-6-yl)-8-methyl-2-(4-azaspiro[2.5]octan-7-yl)phthalazin-1(2H)-one]	< 100	< 100	< 100
Cc1cc(-c2cc(F)c3c(=O)n(C4CCNC5(CC5)C4)ccc3c2)cc2c1nc(C)n2C (stereo not drawn) [Compound 429]	100 to 1000	> 10000	> 10000
Cc1cn2nc(-c3cc(F)c4c(=O)n(C5CCNC5)ccc4c3)cc(C)c2n1 (stereo in doubt) [Compound 382, (R)-6-(2,8-dimethylimidazo[1,2-b]pyridazin-6-yl)-8-fluoro-2-(pyrrolidin-3-yl)isoquinolin-1(2H)-one]	1000 to 10000	1000 to 10000	< 100
